The source made the active and inactive calls. The rule behind the calls is not given here.
Columns and labels:
[1] = target: T1, Sulfhydryl oxidase 1 (Homo sapiens, UniProt O00391); test: Binding affinity towards QSOX1 (unknown origin) measured by microscale thermophoresis assay
T1 sequence (O00391 whole entry): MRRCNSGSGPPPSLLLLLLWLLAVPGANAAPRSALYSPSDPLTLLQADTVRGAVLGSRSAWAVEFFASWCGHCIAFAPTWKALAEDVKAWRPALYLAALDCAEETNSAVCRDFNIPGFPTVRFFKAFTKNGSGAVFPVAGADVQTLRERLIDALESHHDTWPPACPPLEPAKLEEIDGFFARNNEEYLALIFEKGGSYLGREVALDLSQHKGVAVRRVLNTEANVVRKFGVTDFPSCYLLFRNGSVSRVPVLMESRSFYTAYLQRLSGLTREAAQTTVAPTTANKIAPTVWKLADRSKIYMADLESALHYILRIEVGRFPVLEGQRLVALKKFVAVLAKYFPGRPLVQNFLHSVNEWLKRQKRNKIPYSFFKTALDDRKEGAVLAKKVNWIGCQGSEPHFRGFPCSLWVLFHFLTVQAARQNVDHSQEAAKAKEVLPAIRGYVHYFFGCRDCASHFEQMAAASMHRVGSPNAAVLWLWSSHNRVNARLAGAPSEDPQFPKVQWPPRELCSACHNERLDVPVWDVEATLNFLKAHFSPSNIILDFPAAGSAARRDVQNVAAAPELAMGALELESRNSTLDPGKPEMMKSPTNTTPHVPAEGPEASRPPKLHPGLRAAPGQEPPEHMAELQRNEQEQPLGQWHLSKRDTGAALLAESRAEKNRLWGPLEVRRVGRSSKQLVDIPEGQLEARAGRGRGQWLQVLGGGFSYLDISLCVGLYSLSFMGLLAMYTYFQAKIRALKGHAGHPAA

[2] = target: T2, Sulfhydryl oxidase 1 (Homo sapiens) (UniProt O00391); test: Inhibition of QSOX1 (unknown origin) at 6.25 to 50 uM relative to control; conditions: dose 6.25-50 µM
T2 sequence (whole entry): T1 sequence (O00391 whole entry)

[3] = tested on: 786-0; test: Antitumor activity in human 786-0 cells xenografted immunodeficient mouse assessed as reduction in tumor growth at 14 mg/kg/day, po; type: functional; conditions: 786-0, po, read-out: TGI
[4] = tested on: MDA-MB-231; test: Antitumor activity in human MDA-MB-231-Luc cells xenografted immunodeficient mouse assessed as reduction in lung metastasis at 100 mg/kg, po administered for 28 days; type: functional; parameters: scale not given: the % may be the effect or the level left; conditions: time 28 day
[5] = tested on: MDA-MB-231; test: Anticancer activity against human MDA-MB-231 cells at 156.25 to 1250 uM assessed as suppression of tumor cell tendrils spreading formation measured by 3D tumor cell spheroid assay; type: functional, cell-based; conditions: dose 156.25-1250 µM
[6] = tested on: RCJ-41T2; test: Antiinvasive activity against human RCJ-41T2 cells at 156.25 to 1250 uM measured spheroid invasion assay; type: functional, cell-based; conditions: dose 156.25-1250 µM
[7] = tested on: 786-0; test: Antiinvasive activity against human 786-0 cells measured spheroid invasion assay; type: functional, cell-based
[8] = tested on: MIA PaCa-2; test: Antiinvasive activity against human MIA PaCa-2 cells measured spheroid invasion assay; type: functional, cell-based
[9] = tested on: MCF-10A; test: Antiinvasive activity against human MCF-10A cells measured spheroid invasion assay; type: functional, cell-based
[10] = tested on: UOK117; test: Antitumor activity in human UOK117 cells xenografted nude mouse assessed as suppression of tumor growth; type: functional, cell-based

Kd [1]: 20 µM
inhibition [2]: Active
SMILES: COc1cccc(C(=O)Nc2ccc(N3CCCC3)cc2)c1
inhibition in vivo at 14 mg/kg/day [3]: 51%
Activity [4]: 76%
Activity [5]: Active
Activity [6]: Active
Activity [7]: Active
Activity [8]: Active
Activity [9]: Active
Activity [10]: Active
